Measured values published in US20240358693A1, “METHODS OF TREATING PAIN” (Aisa Pharma, Inc., priority 2023, published 2024).

Tested on: participants with SSc-RP
Assay: Average severity of weekly RP attacks (VAS 0-10 cm scale)
Type: in vivo, human
Description: The absolute change in average severity of weekly RP attacks (VAS 0-10 cm scale) from baseline to the end of each Dosing Period was and will be a secondary outcome variable. The sponsor-developed participant-informed diary will be used to record data. Average severity of weekly RP attacks is defined as the total severity scores of RP attacks divided by total number of RP attacks within the last 7 days of each dosing period. Total severity scores of RP attacks during the last 7 days of screening period divided by the total number of RP attacks will be used as baseline for the analysis of all periods. The variable will be calculated similar to frequency data as before.

[1] = Cilnidipine 20 mg, ITT Population - Part A
[2] = Cilnidipine 20 mg, first Baseline RCS subgroup block (not named), ITT Part A
[3] = Cilnidipine 20 mg, first Baseline RCS subgroup block (not named), ITT Part A, score 0-10
[4] = Excluding Outliers, Cilnidipine 10 mg, first Baseline RCS subgroup block (not named), ITT Part A
[5] = Excluding Outliers, Cilnidipine 10 mg, first Baseline RCS subgroup block (not named), ITT Part A, score 0-10
[6] = Excluding Outliers, Cilnidipine 20 mg, first Baseline RCS subgroup block (not named), ITT Part A
[7] = Excluding Outliers, Cilnidipine 20 mg, first Baseline RCS subgroup block (not named), ITT Part A, score 0-10
[8] = Excluding Outliers, Pooled Cilnidipine 10 mg and Cilnidipine 10 mg + Tadalafil 5 mg, first Baseline RCS subgroup block (not named), ITT Part A
[9] = Excluding Outliers, Pooled Cilnidipine 10 mg and Cilnidipine 10 mg + Tadalafil 5 mg, first Baseline RCS subgroup block (not named), ITT Part A, score 0-10
[10] = Excluding Outliers, Pooled Cilnidipine 10 mg and Cilnidipine 10 mg + Tadalafil 5 mg, second Baseline RCS subgroup block (not named), ITT Part A
[11] = Excluding Outliers, Pooled Cilnidipine 10 mg and Cilnidipine 10 mg + Tadalafil 5 mg, second Baseline RCS subgroup block (not named), ITT Part A, score 0-10
[12] = Excluding Outliers, Pooled Cilnidipine 20 mg and Cilnidipine 20 mg + Tadalafil 5 mg, first Baseline RCS subgroup block (not named), ITT Part A
[13] = Excluding Outliers, Pooled Cilnidipine 20 mg and Cilnidipine 20 mg + Tadalafil 5 mg, first Baseline RCS subgroup block (not named), ITT Part A, score 0-10
[14] = Excluding Outliers, Pooled Cilnidipine 20 mg and Cilnidipine 20 mg + Tadalafil 5 mg, second Baseline RCS subgroup block (not named), ITT Part A
[15] = Excluding Outliers, Pooled Cilnidipine 20 mg and Cilnidipine 20 mg + Tadalafil 5 mg, second Baseline RCS subgroup block (not named), ITT Part A, score 0-10
[16] = Excluding Outliers, Pooled Cilnidipine, first Baseline RCS subgroup block (not named), ITT Part A
[17] = Excluding Outliers, Pooled Cilnidipine, first Baseline RCS subgroup block (not named), ITT Part A, score 0-10
[18] = Pooled (over cilnidipine doses), Excluding Outliers, ITT Population - Part A
[19] = Pooled (over cilnidipine doses), Excluding Outliers, by Baseline RCS, first subgroup, ITT Population - Part A
[20] = Pooled (over cilnidipine doses), ITT Population - Part A

## COCCOC(=O)C1=C(C)NC(C)=C(C(=O)OC/C=C/c2ccccc2)C1c1cccc([N+](=O)[O-])c1 (stereo not shown) [Cilnidipine, cilnidipine]
[1]
  Average Severity of Weekly RP Attacks (All Attacks), Change from Baseline, Median: −1.07
  Average Severity of Weekly RP Attacks (All Attacks), Mean: 2.30
  Average Severity of Weekly RP Attacks (All Attacks), Median: 2.30
  Average Severity of Weekly RP Attacks (All Attacks), Percent Change from Baseline, Mean: −27.26%
  Average Severity of Weekly RP Attacks (All Attacks), Percent Change from Baseline, Median: −27.26%
[2]
  Average Severity of Weekly RP Attacks (All Attacks), Percent Change from Baseline, Mean: −27.26%
  Average Severity of Weekly RP Attacks (All Attacks), Percent Change from Baseline, Median: −27.26%
[3]
  Average Severity of Weekly RP Attacks (All Attacks), Change from Baseline, Mean: −1.07
  Average Severity of Weekly RP Attacks (All Attacks), Change from Baseline, Median: −1.07
  Average Severity of Weekly RP Attacks (All Attacks), Mean: 2.30
  Average Severity of Weekly RP Attacks (All Attacks), Median: 2.30
Cilnidipine (20 mg) (n = 3)
  Mean % reduction in severity: 35.5%
  Mean severity at baseline: 3.7
  Severity: −36%
[4]
  Average Severity of Weekly RP Attacks (All Attacks), Percent Change from Baseline, Mean: 0.55%
  Average Severity of Weekly RP Attacks (All Attacks), Percent Change from Baseline, Median: 0.55%
[5]
  Average Severity of Weekly RP Attacks (All Attacks), Change from Baseline, Mean: 0.02
  Average Severity of Weekly RP Attacks (All Attacks), Change from Baseline, Median: 0.02
  Average Severity of Weekly RP Attacks (All Attacks), Mean: 3.05
  Average Severity of Weekly RP Attacks (All Attacks), Median: 3.05
[6]
  Average Severity of Weekly RP Attacks (All Attacks), Percent Change from Baseline, Mean: −27.26%
  Average Severity of Weekly RP Attacks (All Attacks), Percent Change from Baseline, Median: −27.26%
[7]
  Average Severity of Weekly RP Attacks (All Attacks), Change from Baseline, Mean: −1.07
  Average Severity of Weekly RP Attacks (All Attacks), Change from Baseline, Median: −1.07
  Average Severity of Weekly RP Attacks (All Attacks), Mean: 2.30
  Average Severity of Weekly RP Attacks (All Attacks), Median: 2.30
[8]
  Average Severity of Weekly RP Attacks (All Attacks), Percent Change from Baseline, Mean: −23.94%
  Average Severity of Weekly RP Attacks (All Attacks), Percent Change from Baseline, Median: −23.94%
[9]
  Average Severity of Weekly RP Attacks (All Attacks), Change from Baseline, Mean: −1.35
  Average Severity of Weekly RP Attacks (All Attacks), Change from Baseline, Median: −1.35
  Average Severity of Weekly RP Attacks (All Attacks), Mean: 2.97
  Average Severity of Weekly RP Attacks (All Attacks), Median: 2.97
[10]
  Average Severity of Weekly RP Attacks (All Attacks), Percent Change from Baseline, Mean: −21.20%
  Average Severity of Weekly RP Attacks (All Attacks), Percent Change from Baseline, Median: −21.20%
[11]
  Average Severity of Weekly RP Attacks (All Attacks), Change from Baseline, Mean: −1.32
  Average Severity of Weekly RP Attacks (All Attacks), Change from Baseline, Median: −1.32
  Average Severity of Weekly RP Attacks (All Attacks), Mean: 4.90
  Average Severity of Weekly RP Attacks (All Attacks), Median: 4.90
[12]
  Average Severity of Weekly RP Attacks (All Attacks), Percent Change from Baseline, Mean: −21.36%
  Average Severity of Weekly RP Attacks (All Attacks), Percent Change from Baseline, Median: −9.57%
[13]
  Average Severity of Weekly RP Attacks (All Attacks), Change from Baseline, Mean: −0.84
  Average Severity of Weekly RP Attacks (All Attacks), Change from Baseline, Median: −0.39
  Average Severity of Weekly RP Attacks (All Attacks), Mean: 2.78
  Average Severity of Weekly RP Attacks (All Attacks), Median: 2.40
[14]
  Average Severity of Weekly RP Attacks (All Attacks), Percent Change from Baseline, Mean: −23.23%
  Average Severity of Weekly RP Attacks (All Attacks), Percent Change from Baseline, Median: −23.23%
[15]
  Average Severity of Weekly RP Attacks (All Attacks), Change from Baseline, Mean: −1.53
  Average Severity of Weekly RP Attacks (All Attacks), Change from Baseline, Median: −1.53
  Average Severity of Weekly RP Attacks (All Attacks), Mean: 5.06
  Average Severity of Weekly RP Attacks (All Attacks), Median: 5.06
[16]
  Average Severity of Weekly RP Attacks (All Attacks), Percent Change from Baseline, Mean: −17.99%
  Average Severity of Weekly RP Attacks (All Attacks), Percent Change from Baseline, Median: −7.69%
[17]
  Average Severity of Weekly RP Attacks (All Attacks), Change from Baseline, Mean: −0.71
  Average Severity of Weekly RP Attacks (All Attacks), Change from Baseline, Median: −0.20
  Average Severity of Weekly RP Attacks (All Attacks), Mean: 2.55
  Average Severity of Weekly RP Attacks (All Attacks), Median: 2.40
[18]
  Average Severity of Weekly RP Attacks (All Attacks), Change from Baseline, Mean: −0.71
  Average Severity of Weekly RP Attacks (All Attacks), Change from Baseline, Median: −0.20
  Average Severity of Weekly RP Attacks (All Attacks), Mean: 2.55
  Average Severity of Weekly RP Attacks (All Attacks), Median: 2.40
  Average Severity of Weekly RP Attacks (All Attacks), Percent Change from Baseline, Mean: −17.99%
  Average Severity of Weekly RP Attacks (All Attacks), Percent Change from Baseline, Median: −7.69%
[19]
  Average Severity of Weekly Symptomatic RP Attacks (Mean): 2.79
  Average Severity of Weekly Symptomatic RP Attacks (Median): 2.40
  Average Severity of Weekly Symptomatic RP Attacks, Change from Baseline, Mean: −0.87
  Average Severity of Weekly Symptomatic RP Attacks, Change from Baseline, Median: −0.33
  Average Severity of Weekly Symptomatic RP Attacks, Percent Change from Baseline, Mean: −19.22%
  Average Severity of Weekly Symptomatic RP Attacks, Percent Change from Baseline, Median: −12.02%
[20]
  Average Severity of Weekly RP Attacks (All Attacks), Change from Baseline, Mean: −0.71
  Average Severity of Weekly RP Attacks (All Attacks), Change from Baseline, Median: −0.20
  Average Severity of Weekly RP Attacks (All Attacks), Mean: 2.55
  Average Severity of Weekly RP Attacks (All Attacks), Median: 2.40
  Average Severity of Weekly RP Attacks (All Attacks), Percent Change from Baseline, Mean: −17.99%
